The values that follow are results of earlier work, collected in patent US6388175B1, “Control of leaf scald disease” (priority 1995, dated 2002).

“Also recorded” adds a separate entry of the source.

For this series the following is noted: 100° C. for 30 min.

With albicidin, the Activity after heating result is recorded as “unaffected; also recorded: little activity is lost”.
